According to patent US20240216364A1, “STRONG POTENTIATION OF TLR3 AGONISTS EFFECTS USING FXR AGONISTS AS A COMBINED TREATMENT” (ENYO PHARMA, priority 2021, published 2024):

test system: HBV; assay: HBV replication in HBV-infected fresh primary human hepatocytes (PHH): secreted HBsAg, HBeAg, HBV DNA; type: cell-based, HBV (genotype D); conditions: FXR agonist 1 μM combined with Riboxxol 5 μg/mL, FIG. 5
Protocol: Primary human hepatocytes (PHH) were freshly prepared from human liver resection obtained from the Centre Léon Bérard (Lyon) with French ministerial authorizations (AC 2013-1871, DC 2013-1870, AFNOR NF 96 900 sept 2011) as previously described (Lecluyse, E. L. & Alexandre, E. Methods Mol. Biol. Clifton NJ 640, 57-82 (2010)).
HBV stocks (genotype D, Genbank ID U95551) were prepared using the HepAD38 cell line according to previously described protocols (Ladner, S. K. et al. Antimicrob. Agents Chemother. 41, 1715-1720 (1997)). Supernatants containing HBV particles were clarified (0.45 μm filter) and concentrated with 8% PEG 8000 (Sigma-Aldrich). HBV DNA was quantified using the AmpliPrep/COBAS® TaqMan® HBV Test (Roche).
EYP-001 was provided by Enyo Pharma. A stock at 30 mM was constituted in DMSO, and working concentrations were obtained by dilution into the culture medium extemporaneously. Riboxxol was purchased from Riboxx (Germany). It is a synthetic double-stranded RNA (dsRNA), has a length of 50 bp, and is composed of cytosines, inosines and guanosines. It is a pure agonist of TLR3, with no leakiness toward RIG-1 or MDA5 (Lucifora J et al. Sci Rep. 2018 Mar. 29; 8(1):5390). A stock solution was constituted at 1 mg/mL in RNAse-free water. Poly(I:C) High and Low molecular weight were purchased from InvivoGen (USA). They are both double stranded RNA composed of inosine and cytosine (Low: 0.2 to 1 kb, High: 1.5 to 8 kb) and are TLR3 agonists. A stock solution at 1 mg/mL was constituted in RNAse-free water. Tropifexor, Cilofexor and Nidufexor were purchased from TargetMol (USA), GW4064 from Selleckchem (USA), Fexaramine and OCA from Euromedex (France). Those 6 FXR agonists were used as described below. All the stock solutions were at 10 mM (Cilofexor, Tropifexor, Nidufexor, GW4064) or 50 mM (Fexaramine, OCA) in DMSO.
HBs and HBe antigens secreted in cells supernatant were quantified, after required dilutions, with Autobio kits (AutoBio, China) according to manufacturer's protocol.
To determine the combined impact of FXR agonists and TLR3 agonists on HBV infection, in vitro infections were performed in primary human hepatocytes (PHH). PHH are naturally susceptible to infection with HBV virions produced in vitro, leading to very high levels of replication of the virus. Freshly prepared and seeded PHH were infected with HBV at a multiplicity of infection of 500 vge/cell. From day 4 to 12 post-infection, cells were treated with the FXR agonist EYP001 at 30 μM, or with a TLR3 agonist (Riboxxol) at 5 μg/mL, or with the combination of the FXR agonist EYP001 at 30 μM with a TLR3 agonist (Riboxxol) at 5 μg/mL, or with the vehicle. Supernatants were harvested at day 12 for secreted HBV DNA and secreted antigens (HBsAg and HBeAg) quantification. Results are expressed as the mean+SD of two independent experiments, each performed with at least three biological replicates. […]
A third experiment was conducted the same way, in the same model of HBV infected PHH. In this experiment, 6 different FXR agonists (Tropifexor at 1 μM, Cilofexor at 10 μM, Nidufexor at 10 μM, GW4064 at 10 μM, Fexaramine at 10 μM and OCA at 10 μM) were combined with the TLR3 agonist Riboxxol at 5 μg/mL.

| Compound | HBeAg level, effect of the combination versus the TLR3 agonist alone | HBsAg level, effect of the combination versus the TLR3 agonist alone |
| --- | --- | --- |
| O=C(O)c1cc(F)c2nc(N3[C@@H]4CC[C@H]3C[C@@H](OCc3c(-c5ccccc5OC(F)(F)F)noc3C3CC3)C4)sc2c1 [Tropifexor, 2-(3-((5-cyclopropyl-3-(2-(trifluoromethoxy)phenyl)isoxazol-4-yl)methoxy)-8-azabicyclo[3.2.1]octan-8-yl)-4-fluorobenzo[d]thiazole-6-carboxylic acid] | improve the antiviral effects | improve the antiviral effects |

same assay, conditions: FXR agonist 10 μM combined with Riboxxol 5 μg/mL, FIG. 5

| Compound | HBeAg level, effect of the combination versus the TLR3 agonist alone | HBsAg level, effect of the combination versus the TLR3 agonist alone |
| --- | --- | --- |
| O=C(O)c1ccnc(N2CC(O)(c3ccc(OCc4c(-c5c(Cl)cccc5Cl)noc4C4CC4)cc3Cl)C2)c1 [Cilofexor, 2-[3-[2-Chloro-4-[[5-cyclopropyl-3-(2,6-dichlorophenyl)-4-isoxazolyl]methoxy]phenyl]-3-hydroxy-1-azetidinyl]-4-pyridinecarboxylic acid] | improve the antiviral effects | improve the antiviral effects |
| COC(=O)/C=C/c1cccc(N(Cc2ccc(-c3ccc(N(C)C)cc3)cc2)C(=O)C2CCCCC2)c1 [Fexaramine] | improve the antiviral effects | improve the antiviral effects |
| CC(C)c1onc(-c2c(Cl)cccc2Cl)c1COc1ccc(/C=C/c2cccc(C(=O)O)c2)c(Cl)c1 [GW4064, 3-[2-[2-Chloro-4-[[3-(2,6-dichlorophenyl)-5-(1-methylethyl)-4-isoxazolyl]methoxy]phenyl]ethenyl]benzoic acid] | improve the antiviral effects | improve the antiviral effects |
| Cn1nc(C(=O)N(Cc2ccccc2)Cc2ccc(C(=O)O)cc2)c2c1-c1cc(Cl)ccc1OC2 [Nidufexor, 4-[(N-benzyl-8-chloro-1-methyl-1,4-dihydro[1]benzopyrano[4,3-c]pyrazole-3-carboxamido)methyl]benzoic acid] | improve the antiviral effects | improve the antiviral effects |
| CC[C@H]1[C@@H](O)[C@@H]2[C@H](CC[C@]3(C)[C@@H]([C@H](C)CCC(=O)O)CC[C@@H]23)[C@@]2(C)CC[C@@H](O)C[C@@H]12 [OCA, Cholan-24-oic acid, 6-ethyl-3,7-dihydroxy-, (3α,5β,6α,7α)-] | improve the antiviral effects | improve the antiviral effects |
